# Values quoted from earlier work in patent publication US7771771B2, “Phytosterol compositions” (Raisio Nutrition Ltd., priority 1998, dated 2010).
# How the values were obtained:
# [1] = in words
# [2] = system: serum cholesterol; aortic atheroma; conditions: compared with sitosterol
# LDL cholesterol = conditions: children with severe familial hypercholesterolemia; compared with sitosterol
# serum cholesterol = conditions: rats; compared with sitosterol
# [3] = system: cholesterol content of mixed micelles; conditions: compared with sitosterol
smiles,measurement,setting,value
CC[C@H](CC[C@@H](C)[C@H]1CC[C@H]2[C@@H]3CC[C@H]4C[C@@H](O)CC[C@]4(C)[C@H]3CC[C@]12C)C(C)C [sitostanol],absorption,[1],virtually unabsorbed
same,formation of aortic atheroma due to cholesterol feeding,[2],depressed the formation of aortic atheroma due to cholesterol feeding more than did sitosterol
same,reducing elevated levels of LDL cholesterol,LDL cholesterol,significantly more effective than sitosterol
same,hypocholesterolemic activity,serum cholesterol,higher hypocholes-terolemic activity than sitosterol
same,lowering of the cholesterol content of mixed micelles,[3],more efficiently than sitosterol
